Columns and labels:
[1] = system: cartilage explants; assay: Release of 35S-labelled glycosaminoglycans from cartilage explants; format: cell-based; settings: Bos taurus; inhibition of rhIL-1-alpha induced release of 35S-labelled GAG's, bovine knee joint cartilage explants
Experimental: This assay determines if the compounds of formula (I) inhibit the release of ^35S-labelled glycosaminoglycans (GAG's) from cartilage explants.
Small cartilage explants (3 mm diameter) were prepared from freshly sacrificed bovine knee joints and labeled with ^35SO4. ^35S-labelled glycosaminoglycans (GAG's) are released into the culture medium in response to the addition of rhIL-1-alpha, which induces the expression of chondrocyte matrix metalloproteases (MMP's), including stromelysin and collagenase. The percent inhibition of labeled GAG's was corrected for spontaneous release in the absence of rhlL-1-alpha. Results for each group represent the mean ± the S.E.M. for five explants.

[2] = biological target: HNG (Homo sapiens, UniProt P14780); assay: In vitro metalloprotease inhibition assay (thiopeptide/DACM fluorescence); format: biochemical; settings: read-out: Ki or IC50 HNG
Experimental: (§1) Compounds of formula (I) were dissolved in DMSO and added to a cuvette containing 0.2 µg Type I or 0.03 µg Type IV collagenase in 1 ml TC buffer (20mM Tris, 5mM CaCl2, pH 7.5) (2% DMSO final concentration). The concentrations of the compounds of formula (I) were chosen such that there was at least one data point for every 20% change in activity. Enzyme and compounds were permitted to pre-incubate 3 min at 37°C. To initiate the reaction, N-(7-dimethylamino-4-methyl)coumarinyl ("DACM") (Sigma) and thiopeptide (Ac-Pro-Leu-Gly-S-"Leu"-Leu-Gly-OEt, Bachem Bioscience Inc.) were added to 20 uM each. […] Each data point is the average of duplicate experiments. At least six data points, expressed as change in fluorescence per minute versus compound concentration were analyzed using the IC50 fit in the program, Enzfitter.

[3] = biological target: T1, Matr (Homo sapiens, UniProt P09237); assay: as above; format: biochemical; settings: read-out: Ki or IC50 Matr
T1 sequence (P09237 95-267): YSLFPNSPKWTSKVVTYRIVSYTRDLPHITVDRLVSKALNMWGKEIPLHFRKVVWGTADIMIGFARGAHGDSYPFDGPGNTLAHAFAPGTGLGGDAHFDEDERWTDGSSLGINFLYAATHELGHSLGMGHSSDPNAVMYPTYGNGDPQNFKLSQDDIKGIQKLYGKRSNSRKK

[4] = biological target: T2, HFC (Homo sapiens, UniProt P03956); assay: In vitro collagenase inhibition assay (thiopeptide/DACM fluorescence); format: biochemical
T2 construct: endogenous in cells; host or cells: GM0010A fibroblasts stimulated with PMA; enzyme purified from serum-free culture medium
T2 sequence (P03956 100-469): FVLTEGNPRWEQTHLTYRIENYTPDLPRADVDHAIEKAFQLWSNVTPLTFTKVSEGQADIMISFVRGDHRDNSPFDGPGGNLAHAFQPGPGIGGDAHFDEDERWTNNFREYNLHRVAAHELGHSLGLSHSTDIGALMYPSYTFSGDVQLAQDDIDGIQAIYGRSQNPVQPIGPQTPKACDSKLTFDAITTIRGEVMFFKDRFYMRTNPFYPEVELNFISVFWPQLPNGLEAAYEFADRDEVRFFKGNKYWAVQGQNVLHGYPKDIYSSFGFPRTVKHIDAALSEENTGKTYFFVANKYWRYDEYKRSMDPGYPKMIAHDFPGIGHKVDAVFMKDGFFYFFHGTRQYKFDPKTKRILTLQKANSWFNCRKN
Experimental: as §1

[5] = biological target: SLN (Homo sapiens, UniProt P08254); assay: In vitro metalloprotease inhibition assay (thiopeptide/DACM fluorescence); format: biochemical
[6] = biological target: HNC (Homo sapiens, UniProt P22894); assay: as above; format: biochemical
[7] = system: fetal rat long bones; assay: Fetal rat long bone model, bovine PTH induced bone resorption (45Ca release); format: cell-based; settings: 144 h
Source text: An in vitro fetal rat long bone model was used to study the anti-bone resorptive effect of the compounds of formula (I). Bovine PTH was used to induce bone resorption in vitro. The bone resorptive effects were expressed by the amounts of ^45Ca released from the ^45Ca pre-labelled fetal rat long bones into the culture medium. The inhibitory effect of the compounds of formula (I) against bovine PTH induced bone resorption was expressed as mean percent inhibition ± sem.
^45Ca-prelabelled fetal rat long bones (from forearms) were dissected and cultured in Linbro dishes at 37°C overnight BGJb medium, supplemented with 1mg/ml BSA. There were five pairs of bones in each group. The compounds of formula (I) were dissolved in ethanol first, then diluted to various concentrations and added simultaneously with Bovine PTH (1-34) at 1x10^8M on Day 1. […] The assay was terminated on Day 6 with one media change on Day 3.
At the end of each medium change, the ^45Ca present in the culture medium was counted. The remaining bones were digested with 0.1N HCl and the ^45Ca presented in the bone digest was also counted. The results are expressed as % of the total ^45Ca released from each pair of bones. Bovine PTH at 1x10^-8M induces bone resorption to the maximum level which is set as 100% and this concentration was used as standard. […]

HNG, sequence (P14780 107-707 limits assumed): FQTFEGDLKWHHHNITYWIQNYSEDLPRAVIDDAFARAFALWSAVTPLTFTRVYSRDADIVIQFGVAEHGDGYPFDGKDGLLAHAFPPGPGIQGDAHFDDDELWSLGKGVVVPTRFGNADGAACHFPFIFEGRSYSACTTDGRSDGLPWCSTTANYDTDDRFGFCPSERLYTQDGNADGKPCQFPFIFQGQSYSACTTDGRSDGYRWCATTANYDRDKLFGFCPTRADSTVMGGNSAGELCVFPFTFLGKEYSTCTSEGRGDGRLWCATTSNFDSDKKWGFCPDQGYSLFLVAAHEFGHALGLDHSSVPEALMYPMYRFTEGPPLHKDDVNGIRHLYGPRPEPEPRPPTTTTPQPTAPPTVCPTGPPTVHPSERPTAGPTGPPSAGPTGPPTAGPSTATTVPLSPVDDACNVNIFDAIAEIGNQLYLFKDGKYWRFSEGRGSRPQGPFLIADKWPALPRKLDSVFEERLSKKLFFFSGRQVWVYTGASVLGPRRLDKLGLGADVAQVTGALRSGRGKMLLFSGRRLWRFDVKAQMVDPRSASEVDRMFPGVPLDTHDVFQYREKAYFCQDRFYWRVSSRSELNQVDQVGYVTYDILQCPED
HNC, sequence (P22894 101-467): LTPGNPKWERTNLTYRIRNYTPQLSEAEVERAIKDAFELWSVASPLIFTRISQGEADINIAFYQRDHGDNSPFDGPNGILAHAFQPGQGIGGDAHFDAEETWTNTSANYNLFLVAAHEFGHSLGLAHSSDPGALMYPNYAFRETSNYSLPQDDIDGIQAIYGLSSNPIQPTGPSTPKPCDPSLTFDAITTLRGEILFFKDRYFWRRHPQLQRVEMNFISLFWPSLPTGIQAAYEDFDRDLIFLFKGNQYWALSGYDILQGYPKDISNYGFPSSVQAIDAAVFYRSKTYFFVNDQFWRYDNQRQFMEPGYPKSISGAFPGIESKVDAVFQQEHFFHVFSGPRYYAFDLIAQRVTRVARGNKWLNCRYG
SLN, sequence (P08254 100-477): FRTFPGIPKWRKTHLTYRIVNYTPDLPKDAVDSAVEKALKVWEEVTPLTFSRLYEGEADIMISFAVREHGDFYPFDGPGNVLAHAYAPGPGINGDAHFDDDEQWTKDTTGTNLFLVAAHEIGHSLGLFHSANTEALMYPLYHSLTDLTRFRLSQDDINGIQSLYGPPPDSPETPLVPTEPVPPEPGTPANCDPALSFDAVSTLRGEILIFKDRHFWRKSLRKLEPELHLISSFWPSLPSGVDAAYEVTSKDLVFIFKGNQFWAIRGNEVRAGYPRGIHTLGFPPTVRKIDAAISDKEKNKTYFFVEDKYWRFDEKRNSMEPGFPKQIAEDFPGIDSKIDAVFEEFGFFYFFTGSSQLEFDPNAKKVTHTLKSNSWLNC

SMILES | IC50 [1] | IC50 [2] | IC50 [3] | IC50 [4] | IC50 [5] | IC50 [6] | IC50 [7]
CC(C)CC(CC(=O)NO)C(=O)N[C@H]1Cc2cn(c3ccccc23)CCCCCCCNC1=O (stereo partly drawn) [Compound 2, (11S)-N-hydroxy-5-methyl-3-(10-oxo-1,9-diazatricyclo-[11.6.1.0^14,19]eicosa-13(20),14(19),15,17-tetraen-11-ylcarbamoyl)hexanamide] | 40 µM | 0.2 nM | 3 nM | – | – | – | –
CC(C)CC(CP(=O)(O)CSc1ccc2ccccc2n1)C(=O)N[C@H]1Cc2cn(c3ccccc23)CCCCCCNC1=O (stereo partly drawn) [Compound 4, (10S)-[4-methyl-2-(9-oxo-1,8-diazatricyclo[10.6.1.0^13,18]nonadeca-12(19),13(18),14,16-tetraen-10-ylcarbamoyl)pentyl] (quinolin-2-ylthiomethyl)phosphinic acid] | 50 µM | 14 nM | – | 5 nM | > 800 nM | 4 nM | 5 µM
